Laboratory results taken from publication PMC12002301, “Discovery and functional characterization of a bombesin-type neuropeptide signaling system in an invertebrate” (Proceedings of the National Academy of Sciences of the …, 2025).
Entries after “also recorded” stand apart in the source; their conditions may differ.

Test system: ArBNR1
Assay: Luminescence (GFP-aequorin Ca2+) assay, CHO-K1 cells coexpressing ArBNR1 and Gqs5
Format: cell-based, Asterias rubens
Details: ArBNR1, words
Method: Having investigated relationships of eleven A. rubens BN-type receptor candidates (ArBNR1-11) with BN-type, ET-type, and CCHa/EP-type receptors in other taxa, ArBNR1 was identified as the best candidate and therefore this was selected for experimental testing. However, two other receptors (ArBNR2 and ArBNR3) were also tested. The methods employed for functional characterization of A. rubens neuropeptide receptors have been described previously ([57]) and a description of the methods employed in this study is included in SI Appendix, SI Methods. […]
As a complement to use of CLANS, phylogenetic trees were generated with the maximum-likelihood method (1000 bootstrap replicates) using One Step Build a ML Tree plugin in TBtools (12), specifying orexin-type receptors as an outgroup. […] Tree_B analysed the branch of tree_A containing ArBNR1; tree_C analysed the branch of tree_A containing ArBNR2; tree_D analysed the branch of tree_A containing ArBNR3; tree_E analysed the branch of tree_A containing ArBNR4, ArBNR5 and ArBNR6; tree_F analysed the branch of tree_A containing ArBNR7; tree_G analysed the branch of tree_A containing ArBNR8; tree_H analysed the branch of tree_A containing ArBNR9 and tree_I analysed the branch of tree_A containing ArBNR10 and ArBNR11. […]
identical to residues 18 - 270 of the protein XP_033631283.1, which was determined from genome […]

Q: For “EPMPSSLALYIANLSP-NH2 [ArBNP65-81, C-terminally amidated 16-residue peptide predicted to be derived from residues 65 to 81 of ArBNP]”, which peptide-induced luminescence is on record?
A: Its peptide-induced luminescence is “did not trigger luminescence; also recorded: peptide-induced luminescence was only observed with ArBN5-14”.
